The results in this text go back to ChEMBL document CHEMBL1201862, “PubChem BioAssay data set” (2004).

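Where inhibition never reached the appropriate level, the endpoint shown equals the highest concentration tested. Otherwise, values were interpolated linearly from a five-concentration, 48-hour dose response in 96-well plates. GI50 marks 50% less growth.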 Active and inactive are the calls of the source. Rule as the data show it: active = GI50 up to about 1.1 µM and inactive = higher.

Test systems include CAKI-1; COLO 205; HL-60; HOP-62; KM12; M14; MCF7; NCI-H226; NCI-H522; OVCAR-8; RPMI-8226; SF-295; SF-539; SK-MEL-5; SN12C; SW-620; TK-10; U-251; Malme-3M; SR.
What all share (test): growth of human tumour cells (NCI), 48 h

Turning to `COc1ccc2c(c1)CCN=C2c1ccccc1CCCCl`, the GI50 is 24.4 µM (inactive) with CAKI-1; 11 µM (inactive) in the experiment on COLO 205; 11.4 µM (inactive) in the experiment on HL-60; 28.6 µM (inactive) in the experiment with HOP-62; 14.9 µM (inactive) in the experiment on KM12; 29.3 µM (inactive) with M14. The GI50 with MCF7 is 23.1 µM (inactive); in the experiment with NCI-H226, 15.7 µM (inactive); in the experiment on NCI-H522, 11.5 µM (inactive); in the experiment with OVCAR-8 it was 16.8 µM (inactive); with RPMI-8226, 1.84 µM (inactive); in the experiment with SF-295 it was 20.5 µM (inactive). For the same compound, the GI50 in the experiment on SF-539 was 18.6 µM (inactive); in the experiment on SK-MEL-5, 4.99 µM (inactive); with SN12C, 6.93 µM (inactive); in the experiment on SW-620, > 100 µM (inactive); with TK-10 it was 94 µM (inactive); in the experiment with U-251 it was 71.6 µM (inactive).
Take `C1OC1CO[C@@H]1CO[C@H]2[C@@H]1OC[C@H]2OCC1CO1` (some centres not stated): the GI50 is 67.9 µM (inactive) in the experiment on CAKI-1; > 100 µM (inactive) in the experiment on COLO 205; 82.8 µM (inactive) in the experiment with HL-60; > 100 µM (inactive) in the experiment with HOP-62; > 100 µM (inactive) in the experiment on KM12; > 100 µM (inactive) in the experiment with M14. The GI50 in the experiment on Malme-3M, in the experiment on NCI-H226, with NCI-H522, in the experiment on OVCAR-8, in the experiment with RPMI-8226 and in the experiment on SF-295 was > 100 µM (inactive) in each case. Also, the GI50 with SF-539 is > 100 µM (inactive); in the experiment with SK-MEL-5, > 100 µM (inactive); in the experiment with SN12C, > 100 µM (inactive); in the experiment with SR it was 89.5 µM (inactive); with SW-620 it was > 100 µM (inactive); in the experiment on TK-10, > 100 µM (inactive). The GI50 with U-251 was > 100 µM (inactive).
For `O=C(/C=C/c1cc(Cl)cc(Cl)c1O)c1cccc(O)c1`, the GI50 was > 100 µM (inactive) with CAKI-1; 18.6 µM (inactive) in the experiment on COLO 205; 29.1 µM (inactive) with HL-60; 74 µM (inactive) with HOP-62; 54 µM (inactive) in the experiment on KM12; 29.5 µM (inactive) in the experiment with M14. The GI50 in the experiment on Malme-3M was 28.6 µM (inactive); in the experiment with NCI-H226, 16.1 µM (inactive); with NCI-H522 it was > 100 µM (inactive); in the experiment with OVCAR-8, 32.1 µM (inactive); in the experiment with RPMI-8226 it was 49.3 µM (inactive); with SF-295, 14.8 µM (inactive). Also, the GI50 with SF-539 is 28.2 µM (inactive); in the experiment with SK-MEL-5, 45.6 µM (inactive); with SN12C it was 13.7 µM (inactive); in the experiment on SR, 25.5 µM (inactive); in the experiment with SW-620, 54.5 µM (inactive); in the experiment with TK-10, > 100 µM (inactive). Besides, in the experiment with U-251, the GI50 was 25.5 µM (inactive).
With `CC(=O)N(CCc1ccccc1)C(C#N)c1ccc(OCCCCCCCCCCOc2ccc(C(C#N)N(CCc3ccccc3)C(C)=O)cc2)cc1` (configuration not stated), the GI50 is 97.3 µM (inactive) with CAKI-1; > 100 µM (inactive) in the experiment on COLO 205; > 100 µM (inactive) with HL-60; > 100 µM (inactive) in the experiment with KM12; > 100 µM (inactive) in the experiment with M14; > 100 µM (inactive) in the experiment with MCF7. For the same compound, the GI50 in the experiment on Malme-3M is > 100 µM (inactive); in the experiment on NCI-H226 it was 22 µM (inactive); in the experiment on OVCAR-8, 23 µM (inactive); in the experiment with SF-295, 12.4 µM (inactive); in the experiment with SF-539, 23.3 µM (inactive); with SK-MEL-5, > 100 µM (inactive). The GI50 in the experiment on SN12C is > 100 µM (inactive); in the experiment with SW-620, > 100 µM (inactive); in the experiment on TK-10, 41.2 µM (inactive); in the experiment on U-251 it was 21.7 µM (inactive).
For `NC(=O)N/N=C(\Cc1cc(=O)oc2cc(O)ccc12)C(=O)Nc1ccccc1C(N)=O`, the GI50 in the experiment with CAKI-1, with COLO 205, in the experiment with HL-60, with HOP-62, in the experiment with KM12 and with M14 was > 100 µM (inactive) in each case. The GI50 with MCF7, with NCI-H226, in the experiment on NCI-H522, with OVCAR-8, with SF-295 and with SF-539 was > 100 µM (inactive) throughout. The GI50 in the experiment with SK-MEL-5, in the experiment with SN12C, with SW-620, in the experiment on TK-10 and in the experiment with U-251 was > 100 µM (inactive) each time.
Regarding `COc1ccc(C[C@@H](CO)NC2=C(C#N)CCC2)cc1`, the GI50 with CAKI-1 was 43 µM (inactive); in the experiment with COLO 205, 43.7 µM (inactive); in the experiment with HL-60 it was 11 µM (inactive); in the experiment with HOP-62 it was 56.5 µM (inactive); with KM12, 19.5 µM (inactive); in the experiment on M14 it was 41.4 µM (inactive). Moreover, the GI50 was 26.9 µM (inactive) in the experiment with MCF7; 34.7 µM (inactive) in the experiment with Malme-3M; 48.3 µM (inactive) in the experiment with NCI-H226; 64.4 µM (inactive) in the experiment with OVCAR-8; 18.1 µM (inactive) in the experiment with RPMI-8226; 29.7 µM (inactive) with SF-295. The GI50 in the experiment on SF-539 is 26.3 µM (inactive); in the experiment with SK-MEL-5, 34.9 µM (inactive); with SN12C, > 100 µM (inactive); in the experiment with SW-620 it was 49.2 µM (inactive); with TK-10 it was 63.8 µM (inactive); in the experiment on U-251, > 100 µM (inactive).
Turning to `Nc1nc2ncn(CC(O)CO)c2c(=S)[nH]1` (configuration not stated), the GI50 in the experiment on CAKI-1, with COLO 205, in the experiment on HL-60, with HOP-62, in the experiment with KM12 and with M14 was > 100 µM (inactive) in each case. For the same compound, the GI50 in the experiment on Malme-3M, with NCI-H226, with NCI-H522, in the experiment with OVCAR-8, with RPMI-8226 and with SF-295 was > 100 µM (inactive) each time. The GI50 in the experiment with SF-539, in the experiment on SK-MEL-5, in the experiment with SN12C, in the experiment on SR, in the experiment on SW-620 and in the experiment with TK-10 was > 100 µM (inactive) throughout. In addition, the GI50 in the experiment with U-251 was > 100 µM (inactive).
`c1ccc(SC23C4C5C6C4C2C6C53)nc1` (configuration not stated): the GI50 is > 100 µM (inactive) in the experiment with CAKI-1; > 100 µM (inactive) in the experiment with COLO 205; 11.5 µM (inactive) in the experiment on HL-60; > 100 µM (inactive) with HOP-62; > 100 µM (inactive) with KM12; > 100 µM (inactive) with M14. Besides, the GI50 is > 100 µM (inactive) in the experiment with Malme-3M; > 100 µM (inactive) in the experiment with NCI-H226; > 100 µM (inactive) in the experiment with NCI-H522; > 100 µM (inactive) in the experiment on OVCAR-8; > 39.5 µM (inactive) with RPMI-8226; > 100 µM (inactive) in the experiment with SF-295. For the same compound, the GI50 is > 75 µM (inactive) in the experiment with SF-539; > 100 µM (inactive) with SK-MEL-5; > 100 µM (inactive) with SN12C; > 19.6 µM (inactive) in the experiment on SR; > 100 µM (inactive) with SW-620; > 67.9 µM (inactive) in the experiment on TK-10. Also, the GI50 in the experiment with U-251 is > 100 µM (inactive).
Consider `CCCCN(Cc1ccccc1)/C(=N/C#N)N(Cc1ccccc1)Cc1ccccc1`, for which the GI50 was 10 µM (inactive) in the experiment on CAKI-1; 15.7 µM (inactive) in the experiment on COLO 205; 36.6 µM (inactive) with HL-60; 26.1 µM (inactive) with HOP-62; 10.2 µM (inactive) in the experiment with KM12; 12.8 µM (inactive) with M14. In addition, the GI50 in the experiment on MCF7 was 16.1 µM (inactive); in the experiment with Malme-3M, 8.59 µM (inactive); in the experiment with NCI-H226, 23.1 µM (inactive); with NCI-H522, 7.26 µM (inactive); in the experiment with OVCAR-8, 27.9 µM (inactive); with RPMI-8226, 12.6 µM (inactive). In addition, the GI50 with SF-295 is 9.95 µM (inactive); in the experiment on SF-539 it was 21.9 µM (inactive); in the experiment on SK-MEL-5, 14.8 µM (inactive); with SN12C, 18.2 µM (inactive); in the experiment on SW-620 it was 24.1 µM (inactive); in the experiment with TK-10, 38.1 µM (inactive). The GI50 in the experiment with U-251 is 17.1 µM (inactive).
On to `Cc1ccc(C2(O)CC(c3ccc([N+](=O)[O-])o3)=NN2C(=O)COc2ccc(Cl)cc2)cc1` (configuration not stated), for which the GI50 was 12.6 µM (inactive) with CAKI-1; 3.62 µM (inactive) in the experiment on COLO 205; 1.75 µM (inactive) with HL-60; 12.3 µM (inactive) in the experiment on HOP-62; 4.66 µM (inactive) in the experiment on KM12; 4.93 µM (inactive) in the experiment on M14. In addition, the GI50 was 11.6 µM (inactive) in the experiment with Malme-3M; 17.1 µM (inactive) with NCI-H226; 9.04 µM (inactive) with NCI-H522; 4.63 µM (inactive) in the experiment on OVCAR-8; 2.24 µM (inactive) with RPMI-8226; 10.6 µM (inactive) in the experiment on SF-295. Besides, the GI50 is 10.2 µM (inactive) in the experiment with SF-539; 2.32 µM (inactive) with SK-MEL-5; 5.18 µM (inactive) with SN12C; 1.82 µM (inactive) with SR; 3.12 µM (inactive) in the experiment with SW-620; 15 µM (inactive) in the experiment with TK-10. Further, the GI50 in the experiment on U-251 is 2.28 µM (inactive).
On to `CN(CCNC(=O)c1nn(-c2ccccc2)c2c1ccc1ccccc12)CCNC(=O)c1nn(-c2ccccc2)c2c1ccc1ccccc12`, for which the GI50 was 3.33 µM (inactive) in the experiment with CAKI-1; 1.54 µM (inactive) in the experiment on COLO 205; 1.95 µM (inactive) in the experiment on HL-60; 1.43 µM (inactive) in the experiment on HOP-62; 2.37 µM (inactive) in the experiment with KM12; 1.78 µM (inactive) in the experiment with M14. Also, the GI50 is 1.98 µM (inactive) in the experiment on MCF7; 2.23 µM (inactive) with Malme-3M; 2.29 µM (inactive) in the experiment with NCI-H226; 2.04 µM (inactive) with NCI-H522; 1.79 µM (inactive) in the experiment on OVCAR-8; 0.202 µM (active) with RPMI-8226. The GI50 with SF-295 is 1.61 µM (inactive); in the experiment on SF-539 it was 1.66 µM (inactive); in the experiment on SK-MEL-5 it was 1.64 µM (inactive); in the experiment with SN12C, 1.88 µM (inactive); in the experiment on SW-620, 2.17 µM (inactive); in the experiment with TK-10, 1.4 µM (inactive). Besides, the GI50 with U-251 was 1.57 µM (inactive).
